Source: ChEMBL document CHEMBL1201862, “PubChem BioAssay data set” (2004)
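Where inhibition never reached the appropriate level, the endpoint shown equals the highest concentration tested. Otherwise, values were interpolated linearly from a five-concentration, 48-hour dose response in 96-well plates. At the GI50, growth is halved.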 Active and inactive are the calls of the source. No stated cut-off is given here; in the data, active = GI50 up to about 1.1 µM and inactive = higher.

Columns and labels:
Assay in all cases: NCI-60 cell line screen, 48 h
MDA-MB-435 = system: MDA-MB-435
SW-620 = system: SW-620
SK-MEL-2 = system: SK-MEL-2
SR = system: SR
NCI/ADR-RES = system: NCI/ADR-RES
ACHN = system: ACHN
CAKI-1 = system: CAKI-1
RXF 393 = system: RXF 393
SF-268 = system: SF-268
NCI-H23 = system: NCI-H23
PC-3 = system: PC-3
MCF7 = system: MCF7
OVCAR-4 = system: OVCAR-4
HOP-62 = system: HOP-62
KM12 = system: KM12
786-0 = system: 786-0
K562 = system: K562
SK-MEL-5 = system: SK-MEL-5
HL-60 = system: HL-60
BT-549 = system: BT-549

Measured: GI50

CC1S/C(=N\N=C2/C(=O)Nc3ccc(Br)cc32)N(C2CCCCC2)C1=O (centres undefined)
inactive: MDA-MB-435 5.37 µM | SW-620 11.7 µM | SK-MEL-2 1.45 µM | SR 5.06 µM | NCI/ADR-RES 3.4 µM | ACHN 1.16 µM | CAKI-1 1.8 µM | RXF 393 3.21 µM | SF-268 6.38 µM | NCI-H23 4.42 µM | PC-3 5.36 µM | MCF7 12.5 µM | OVCAR-4 1.89 µM | HOP-62 2.09 µM | KM12 4.65 µM | 786-0 2.59 µM | K562 > 100 µM | SK-MEL-5 40.6 µM | HL-60 5.85 µM

CC(=O)NCCCCN(CCCNC(C)=O)C(=O)CNS(=O)(=O)c1cccc2c(N(C)C)cccc12
inactive: MDA-MB-435 > 100 µM | SW-620 > 100 µM | SK-MEL-2 > 100 µM | SR > 100 µM | ACHN > 100 µM | RXF 393 > 100 µM | SF-268 > 100 µM | BT-549 > 100 µM | NCI-H23 > 100 µM | PC-3 > 100 µM | MCF7 > 100 µM | OVCAR-4 > 100 µM | HOP-62 > 100 µM | 786-0 > 100 µM | K562 > 100 µM | SK-MEL-5 > 100 µM | HL-60 > 100 µM

C[C@@H](Cl)[C@H]1CCCN(Cc2ccc(Br)cc2)C1
inactive: MDA-MB-435 > 12.5 µM | SW-620 > 12.5 µM | SK-MEL-2 > 12.5 µM | SR > 12.5 µM | NCI/ADR-RES > 12.5 µM | ACHN > 12.5 µM | CAKI-1 > 12.5 µM | RXF 393 > 12.5 µM | SF-268 > 12.5 µM | NCI-H23 > 12.5 µM | PC-3 > 12.5 µM | MCF7 > 12.5 µM | OVCAR-4 > 12.5 µM | HOP-62 > 12.5 µM | KM12 > 12.5 µM | 786-0 > 12.5 µM | K562 > 12.5 µM | SK-MEL-5 > 12.5 µM | HL-60 > 12.5 µM

CSc1ncc2c(n1)C(C#N)C1Sc3ccccc3N1C2=O (centres undefined)
inactive: MDA-MB-435 > 100 µM | SW-620 > 100 µM | NCI/ADR-RES > 100 µM | ACHN 59.4 µM | CAKI-1 > 100 µM | RXF 393 65 µM | SF-268 44.9 µM | BT-549 > 100 µM | NCI-H23 78 µM | OVCAR-4 > 100 µM | HOP-62 37.5 µM | KM12 > 100 µM | 786-0 76.9 µM | SK-MEL-5 > 100 µM

O=[As](O)(O)c1cc(/N=N/c2ccc(-c3ccc(/N=N/c4cc([As](=O)(O)O)c(O)cc4O)cc3)cc2)c(O)cc1O
inactive: SW-620 > 100 µM | SK-MEL-2 > 100 µM | SR > 100 µM | ACHN > 100 µM | CAKI-1 > 79.6 µM | RXF 393 > 100 µM | SF-268 > 100 µM | NCI-H23 > 100 µM | OVCAR-4 > 42.9 µM | HOP-62 > 100 µM | KM12 > 100 µM | 786-0 > 100 µM | K562 > 55.5 µM | SK-MEL-5 > 88.1 µM | HL-60 > 48.8 µM

O=C1CN(c2ccc(Cl)cc2)C(=O)CN1CCN1CC(=O)N(c2ccc(Cl)cc2)CC1=O
inactive: MDA-MB-435 > 100 µM | SW-620 > 100 µM | SR > 100 µM | ACHN > 100 µM | CAKI-1 > 100 µM | RXF 393 > 100 µM | SF-268 > 100 µM | BT-549 > 100 µM | NCI-H23 > 100 µM | PC-3 > 100 µM | MCF7 > 100 µM | OVCAR-4 > 100 µM | HOP-62 > 100 µM | KM12 > 100 µM | 786-0 > 100 µM | SK-MEL-5 > 100 µM | HL-60 > 100 µM

CC(C)[C@H](NC(=O)[C@@H](O)[C@H](N)Cc1ccccc1)C(=O)N[C@@H](Cc1ccccc1)C(=O)O
inactive: MDA-MB-435 > 100 µM | SW-620 > 100 µM | SK-MEL-2 > 100 µM | SR > 100 µM | NCI/ADR-RES > 100 µM | ACHN > 100 µM | CAKI-1 > 100 µM | SF-268 > 100 µM | NCI-H23 > 100 µM | PC-3 > 100 µM | MCF7 > 100 µM | OVCAR-4 > 100 µM | HOP-62 > 100 µM | KM12 > 100 µM | 786-0 > 100 µM | K562 > 100 µM | SK-MEL-5 > 100 µM | HL-60 > 100 µM

O=[N+]([O-])c1ccc(C2c3c(O)nc(O)nc3Oc3nc(O)nc(O)c32)cc1
inactive: MDA-MB-435 > 100 µM | SW-620 > 100 µM | SK-MEL-2 > 100 µM | ACHN > 100 µM | CAKI-1 > 100 µM | RXF 393 8.36 µM | SF-268 > 100 µM | BT-549 > 100 µM | NCI-H23 > 100 µM | PC-3 > 100 µM | OVCAR-4 > 100 µM | HOP-62 > 100 µM | KM12 > 100 µM | 786-0 > 100 µM | SK-MEL-5 > 100 µM | HL-60 33.7 µM

COc1cc2ccc3c4cc(OC)c(OC(C)C)cc4cnc3c2cc1OC
inactive: SW-620 > 100 µM | SK-MEL-2 > 100 µM | SR > 100 µM | ACHN > 100 µM | CAKI-1 > 100 µM | RXF 393 > 100 µM | SF-268 > 100 µM | NCI-H23 > 100 µM | OVCAR-4 > 100 µM | HOP-62 > 100 µM | KM12 > 100 µM | 786-0 > 100 µM | K562 > 100 µM | SK-MEL-5 > 100 µM | HL-60 > 100 µM

CCOC(=O)NC(=O)c1cn(CCOC(=O)CCCCCCCCC(=O)OCCn2cc(C(=O)NC(=O)OCC)c(=O)[nH]c2=O)c(=O)[nH]c1=O
inactive: SW-620 > 100 µM | SK-MEL-2 > 100 µM | SR > 100 µM | ACHN > 100 µM | CAKI-1 > 100 µM | RXF 393 > 100 µM | SF-268 > 100 µM | NCI-H23 23.9 µM | OVCAR-4 > 100 µM | HOP-62 > 100 µM | KM12 > 100 µM | 786-0 > 100 µM | K562 > 100 µM | SK-MEL-5 > 100 µM | HL-60 > 100 µM

CO/C(=N\N=C\c1ccc(OC)cc1OC)c1ccncc1
inactive: SW-620 > 10 µM | SK-MEL-2 > 10 µM | SR > 10 µM | NCI/ADR-RES > 10 µM | ACHN > 10 µM | RXF 393 > 10 µM | SF-268 > 10 µM | NCI-H23 > 10 µM | PC-3 > 10 µM | MCF7 > 10 µM | HOP-62 > 10 µM | KM12 > 10 µM | 786-0 > 10 µM | K562 > 10 µM | SK-MEL-5 > 10 µM | HL-60 > 10 µM

c1cn[nH]c1 [PYRAZOLE]
inactive: MDA-MB-435 > 10 µM | SW-620 > 10 µM | SK-MEL-2 > 10 µM | SR > 10 µM | NCI/ADR-RES > 10 µM | ACHN > 10 µM | RXF 393 > 10 µM | SF-268 > 10 µM | NCI-H23 > 10 µM | PC-3 > 10 µM | MCF7 > 10 µM | OVCAR-4 > 10 µM | HOP-62 > 10 µM | KM12 > 10 µM | 786-0 > 10 µM | K562 > 10 µM | SK-MEL-5 > 10 µM | HL-60 > 10 µM
